In PMC4904262 (ACS Medicinal Chemistry Letters, 2016):
Where two headings read alike, the source gives them in different places.

How the values were obtained:
ABL (Q252H) = ABL (Q252H) (Homo sapiens, UniProt P00519, Q252H); settings: 1 µM, ATP at Km
cMET (M1268T) = cMET (M1268T) (Homo sapiens, UniProt P08581, M1250T); settings: 1 µM, ATP at Km
GRK5 = GRK5 (Homo sapiens, UniProt P34947); settings: 1 µM, ATP at Km
EGFR(T790M) = EGFR(T790M) (Homo sapiens, UniProt P00533, T790M); settings: 1 µM, ATP at Km
PI3 KINASE (H1047R/P85A) = PI3 KINASE (H1047R/P85A) (Homo sapiens, UniProt P42336, H1047R); settings: 1 µM, ATP at Km
RSK3 = RSK3 (Homo sapiens, UniProt Q15349); settings: 1 µM, ATP at Km
Sequence of RSK3 (Q15349 whole entry): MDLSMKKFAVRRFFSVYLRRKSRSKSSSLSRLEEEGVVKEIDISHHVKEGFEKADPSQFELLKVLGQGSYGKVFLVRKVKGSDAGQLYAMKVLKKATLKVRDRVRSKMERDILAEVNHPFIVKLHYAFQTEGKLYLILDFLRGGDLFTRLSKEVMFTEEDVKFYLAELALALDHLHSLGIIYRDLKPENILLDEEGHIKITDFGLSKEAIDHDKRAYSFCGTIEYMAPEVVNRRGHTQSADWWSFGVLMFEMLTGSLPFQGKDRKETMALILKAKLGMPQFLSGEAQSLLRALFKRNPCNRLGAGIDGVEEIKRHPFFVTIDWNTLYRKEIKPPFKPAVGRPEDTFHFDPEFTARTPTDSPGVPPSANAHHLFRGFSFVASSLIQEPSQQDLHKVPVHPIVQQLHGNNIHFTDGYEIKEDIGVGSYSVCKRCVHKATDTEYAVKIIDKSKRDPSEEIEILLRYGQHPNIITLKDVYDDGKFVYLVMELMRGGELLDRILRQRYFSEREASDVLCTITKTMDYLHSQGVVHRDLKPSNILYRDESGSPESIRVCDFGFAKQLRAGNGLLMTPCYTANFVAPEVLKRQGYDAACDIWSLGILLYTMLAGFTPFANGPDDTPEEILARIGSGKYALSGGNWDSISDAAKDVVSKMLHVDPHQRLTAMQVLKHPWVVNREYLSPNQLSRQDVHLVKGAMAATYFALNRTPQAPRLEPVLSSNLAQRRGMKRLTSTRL

SAPK2A(T106M) = SAPK2A(T106M) (Homo sapiens, UniProt Q16539, T106M); settings: 1 µM, ATP at Km
ABL (M351T) = ABL (M351T) (Homo sapiens, UniProt P00519, M351T); settings: 1 µM, ATP at Km
BMX = BMX (Homo sapiens, UniProt P51813); settings: 1 µM, ATP at Km
Sequence of BMX (P51813 whole entry): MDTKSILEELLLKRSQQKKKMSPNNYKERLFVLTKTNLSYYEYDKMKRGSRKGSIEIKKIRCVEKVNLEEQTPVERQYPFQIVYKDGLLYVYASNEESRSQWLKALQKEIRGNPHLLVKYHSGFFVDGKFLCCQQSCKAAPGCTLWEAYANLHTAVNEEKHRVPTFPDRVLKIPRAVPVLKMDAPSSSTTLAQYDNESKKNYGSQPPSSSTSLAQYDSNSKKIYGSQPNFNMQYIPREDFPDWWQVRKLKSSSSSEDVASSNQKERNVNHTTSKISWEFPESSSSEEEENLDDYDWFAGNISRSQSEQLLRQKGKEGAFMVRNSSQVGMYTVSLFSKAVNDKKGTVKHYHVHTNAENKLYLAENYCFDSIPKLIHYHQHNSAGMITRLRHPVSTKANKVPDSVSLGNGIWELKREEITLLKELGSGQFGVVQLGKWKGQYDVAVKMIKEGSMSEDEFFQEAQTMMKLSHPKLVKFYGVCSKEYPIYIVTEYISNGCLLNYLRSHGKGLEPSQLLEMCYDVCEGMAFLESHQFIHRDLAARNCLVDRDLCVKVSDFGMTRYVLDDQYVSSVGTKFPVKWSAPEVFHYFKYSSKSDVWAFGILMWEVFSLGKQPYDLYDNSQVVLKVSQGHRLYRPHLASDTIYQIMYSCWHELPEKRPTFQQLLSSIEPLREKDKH

cMET (Y1248C) = cMET (Y1248C) (Homo sapiens, UniProt P08581, Y1230C); settings: 1 µM, ATP at Km
MKK4 = MKK4 (Mus musculus, UniProt P47809); settings: 1 µM, ATP at Km
DAPK2 = DAPK2 (Homo sapiens, UniProt Q9UIK4); settings: 1 µM, ATP at Km
FLT3(D835Y) = FLT3(D835Y) (Homo sapiens, UniProt P36888, D835Y); settings: 1 µM, ATP at Km
HCK = HCK (Homo sapiens, UniProt P08631); settings: HCK (second listing, page 11); 1 µM; ATP at Km
TIE2(Y897S) = TIE2(Y897S) (Homo sapiens, UniProt Q02763, Y897S); settings: 1 µM, ATP at Km
CKIT(D816H) = CKIT(D816H) (Homo sapiens, UniProt P10721, D816H); settings: 1 µM, ATP at Km
SRC(T341M) = SRC(T341M) (Homo sapiens, UniProt P12931, T341M); settings: 1 µM, ATP at Km
PRK2 = PRK2 (Homo sapiens, UniProt Q16513); settings: 1 µM, ATP at Km
Sequence of PRK2 (Q16513 whole entry): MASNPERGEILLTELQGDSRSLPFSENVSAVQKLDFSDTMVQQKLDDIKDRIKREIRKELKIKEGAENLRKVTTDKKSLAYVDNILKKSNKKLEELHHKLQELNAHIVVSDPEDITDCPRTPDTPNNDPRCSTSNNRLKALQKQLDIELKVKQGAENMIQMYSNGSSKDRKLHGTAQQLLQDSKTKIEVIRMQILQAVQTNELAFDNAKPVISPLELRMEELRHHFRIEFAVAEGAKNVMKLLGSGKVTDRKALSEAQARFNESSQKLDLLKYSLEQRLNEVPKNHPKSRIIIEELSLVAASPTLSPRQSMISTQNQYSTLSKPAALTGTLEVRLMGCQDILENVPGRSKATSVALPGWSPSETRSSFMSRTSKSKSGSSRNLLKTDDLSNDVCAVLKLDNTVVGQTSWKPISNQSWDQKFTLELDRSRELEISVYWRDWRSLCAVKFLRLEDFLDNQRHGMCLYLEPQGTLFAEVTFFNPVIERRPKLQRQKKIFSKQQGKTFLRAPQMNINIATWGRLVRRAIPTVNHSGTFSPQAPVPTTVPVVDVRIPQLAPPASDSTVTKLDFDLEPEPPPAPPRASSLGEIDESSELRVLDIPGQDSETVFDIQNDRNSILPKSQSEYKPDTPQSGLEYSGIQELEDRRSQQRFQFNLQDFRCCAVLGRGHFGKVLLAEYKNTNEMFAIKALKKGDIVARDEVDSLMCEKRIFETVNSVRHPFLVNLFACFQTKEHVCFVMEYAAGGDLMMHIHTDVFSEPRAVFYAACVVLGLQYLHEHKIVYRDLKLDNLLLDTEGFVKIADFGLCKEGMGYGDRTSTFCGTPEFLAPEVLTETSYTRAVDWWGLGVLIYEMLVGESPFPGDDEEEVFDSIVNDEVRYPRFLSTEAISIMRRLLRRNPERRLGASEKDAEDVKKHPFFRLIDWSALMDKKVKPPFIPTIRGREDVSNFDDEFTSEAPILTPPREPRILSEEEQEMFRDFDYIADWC

LCK = LCK (Homo sapiens, UniProt P06239); settings: LCK (second listing, page 11); 1 µM; ATP at Km
CK2ALPHA2 = CK2ALPHA2 (Homo sapiens, UniProt P19784); settings: 1 µM, ATP at Km
Sequence of CK2ALPHA2 (P19784 whole entry): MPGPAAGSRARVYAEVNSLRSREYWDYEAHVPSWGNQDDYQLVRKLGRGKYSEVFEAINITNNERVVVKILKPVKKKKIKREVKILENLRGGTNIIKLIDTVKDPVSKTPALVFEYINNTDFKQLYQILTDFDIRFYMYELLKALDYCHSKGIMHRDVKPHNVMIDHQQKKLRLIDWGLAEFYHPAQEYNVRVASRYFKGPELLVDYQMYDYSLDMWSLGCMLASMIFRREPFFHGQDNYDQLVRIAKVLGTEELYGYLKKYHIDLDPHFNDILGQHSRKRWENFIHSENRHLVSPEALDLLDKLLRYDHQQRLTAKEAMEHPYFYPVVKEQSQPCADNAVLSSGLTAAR

CDK7/CYCLINH/MAT1 = CDK7/CYCLINH/MAT1 (Homo sapiens, UniProt P50613); settings: 1 µM, ATP at Km
Sequence of CDK7/CYCLINH/MAT1 (P50613 whole entry): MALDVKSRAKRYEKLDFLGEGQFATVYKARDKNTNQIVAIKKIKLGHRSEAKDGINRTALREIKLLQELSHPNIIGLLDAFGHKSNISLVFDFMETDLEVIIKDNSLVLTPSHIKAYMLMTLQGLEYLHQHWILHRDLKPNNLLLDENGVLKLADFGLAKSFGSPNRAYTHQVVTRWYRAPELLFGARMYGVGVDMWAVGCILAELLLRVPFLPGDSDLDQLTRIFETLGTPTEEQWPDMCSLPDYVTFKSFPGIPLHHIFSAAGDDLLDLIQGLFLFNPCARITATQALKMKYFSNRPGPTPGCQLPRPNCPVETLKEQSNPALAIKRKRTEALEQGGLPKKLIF
Sequence of CDK7/CYCLINH/MAT1 (P51946 whole entry partner): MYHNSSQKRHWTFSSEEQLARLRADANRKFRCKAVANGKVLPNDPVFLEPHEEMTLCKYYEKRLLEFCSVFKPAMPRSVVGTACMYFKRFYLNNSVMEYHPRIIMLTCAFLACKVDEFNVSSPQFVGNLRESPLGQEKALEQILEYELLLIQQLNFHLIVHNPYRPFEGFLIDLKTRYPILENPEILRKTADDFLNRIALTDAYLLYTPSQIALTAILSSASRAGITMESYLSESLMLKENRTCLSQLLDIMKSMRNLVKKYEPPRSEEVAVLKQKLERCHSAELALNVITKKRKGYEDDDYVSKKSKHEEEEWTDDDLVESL
Sequence of CDK7/CYCLINH/MAT1 (P51948 whole entry partner): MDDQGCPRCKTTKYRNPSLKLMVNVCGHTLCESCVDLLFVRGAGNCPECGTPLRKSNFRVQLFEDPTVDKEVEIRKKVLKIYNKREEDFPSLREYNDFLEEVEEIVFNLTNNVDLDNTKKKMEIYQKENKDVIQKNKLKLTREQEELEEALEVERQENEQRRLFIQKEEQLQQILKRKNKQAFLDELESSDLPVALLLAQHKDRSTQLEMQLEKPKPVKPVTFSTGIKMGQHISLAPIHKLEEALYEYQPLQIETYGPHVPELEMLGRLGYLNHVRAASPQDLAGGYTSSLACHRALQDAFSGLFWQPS

CK1(Y) = settings: 1 µM, ATP at Km
cMET (Y1248D) = cMET (Y1248D) (Homo sapiens, UniProt P08581, Y1230D); settings: 1 µM, ATP at Km
CKIT(V560G) = CKIT(V560G) (Homo sapiens, UniProt P10721, V560G); settings: 1 µM, ATP at Km
EGFR(L858R) = EGFR(L858R) (Homo sapiens, UniProt P00533, L858R); settings: 1 µM, ATP at Km
CHK2(R145W) = CHK2(R145W) (Homo sapiens, UniProt O96017, R145W); settings: 1 µM, ATP at Km
SRC(1-530) = SRC(1-530) (Homo sapiens, UniProt P12931); settings: 1 µM, ATP at Km
EGFR(L861Q) = EGFR(L861Q) (Homo sapiens, UniProt P00533, L861Q); settings: 1 µM, ATP at Km
PKCZETA = PKCZETA (Homo sapiens, UniProt Q05513); settings: 1 µM, ATP at Km
Sequence of PKCZETA (Q05513 whole entry): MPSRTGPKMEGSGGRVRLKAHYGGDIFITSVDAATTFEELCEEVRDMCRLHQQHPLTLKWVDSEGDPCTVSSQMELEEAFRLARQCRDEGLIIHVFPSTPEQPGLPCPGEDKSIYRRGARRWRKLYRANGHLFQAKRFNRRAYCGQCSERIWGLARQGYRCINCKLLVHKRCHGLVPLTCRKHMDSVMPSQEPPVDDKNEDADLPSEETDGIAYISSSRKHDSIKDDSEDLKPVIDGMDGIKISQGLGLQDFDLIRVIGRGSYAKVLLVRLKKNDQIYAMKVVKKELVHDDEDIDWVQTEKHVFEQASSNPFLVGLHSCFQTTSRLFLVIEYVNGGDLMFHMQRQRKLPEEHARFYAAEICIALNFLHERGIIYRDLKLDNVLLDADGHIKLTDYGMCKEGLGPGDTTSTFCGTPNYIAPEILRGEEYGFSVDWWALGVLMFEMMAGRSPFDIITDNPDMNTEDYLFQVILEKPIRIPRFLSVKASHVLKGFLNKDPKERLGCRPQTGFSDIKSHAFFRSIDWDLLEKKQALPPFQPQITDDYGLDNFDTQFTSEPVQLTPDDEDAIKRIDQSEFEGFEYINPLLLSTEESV

in vivo [1] = settings: rat
Caco-2 = settings: human
[2] = biological target: CDK19 in the presence of cyclin C (Homo sapiens, UniProt Q9BWU1); test: biochemical; settings: read-out: CDK19 residence time ± SD
[3] = mouse, in vivo, iv, 0.2 mg/kg
P70S6K = P70S6K (Homo sapiens, UniProt P23443); settings: 1 µM, ATP at Km
in vivo [4] = settings: mouse
[5] = rat, in vivo, 0.2 mg/kg
in vitro [6] = settings: human, microsomes
[7] = biological target: CDK8 in the presence of cyclin C (Homo sapiens, UniProt P49336); test: biochemical; settings: read-out: CDK8 residence time ± SD
in vitro [8] = settings: rat, microsomes
CDK9/CYCLINT1 = CDK9/CYCLINT1 (Homo sapiens, UniProt P50750); settings: 1 µM, ATP at Km

Sequence of GRK5 (P34947 whole entry): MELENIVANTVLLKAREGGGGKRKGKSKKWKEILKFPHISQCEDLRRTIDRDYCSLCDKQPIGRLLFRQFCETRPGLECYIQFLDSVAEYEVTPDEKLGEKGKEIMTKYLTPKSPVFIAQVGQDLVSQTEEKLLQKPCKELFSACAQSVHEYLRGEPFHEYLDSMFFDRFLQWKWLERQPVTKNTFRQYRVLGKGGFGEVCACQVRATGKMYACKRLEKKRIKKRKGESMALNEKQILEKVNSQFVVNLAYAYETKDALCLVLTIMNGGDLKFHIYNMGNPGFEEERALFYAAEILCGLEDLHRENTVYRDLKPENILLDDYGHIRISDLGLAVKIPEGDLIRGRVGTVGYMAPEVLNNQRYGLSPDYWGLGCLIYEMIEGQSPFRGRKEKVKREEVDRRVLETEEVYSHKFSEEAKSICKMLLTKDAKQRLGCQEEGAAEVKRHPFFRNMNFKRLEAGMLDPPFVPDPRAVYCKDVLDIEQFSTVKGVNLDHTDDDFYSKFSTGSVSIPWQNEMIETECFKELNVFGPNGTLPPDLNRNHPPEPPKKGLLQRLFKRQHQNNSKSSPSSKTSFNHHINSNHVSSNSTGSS

Q: Which percentage effect (ABL (Q252H)) does the source give for `COC1CN(C(=O)c2ccc3c(N)ncc(-c4ccc(-c5cnn(C)c5)cc4)c3c2)C1` [Compound 59] here?
A: 9%

Q: What about the percentage effect (cMET (M1268T)) of the same compound?
A: 5%

Q: And the percentage effect (GRK5)?
A: 22%

Q: And the percentage effect (EGFR(T790M))?
A: -2%

Q: What about the percentage effect (PI3 KINASE (H1047R/P85A)) of the same compound?
A: -2%

Q: What about the percentage effect (RSK3) of the same compound?
A: 4%

Q: What about the percentage effect (SAPK2A(T106M)) of the same compound?
A: 1%

Q: What about the percentage effect (ABL (M351T)) of the same compound?
A: 2%

Q: What about the percentage effect (BMX) of the same compound?
A: 1%

Q: And the percentage effect (cMET (Y1248C))?
A: -19%

Q: And the percentage effect (MKK4)?
A: 3%

Q: What about the percentage effect (DAPK2) of the same compound?
A: 12%

Q: And the percentage effect (FLT3(D835Y))?
A: -10%

Q: And the percentage effect (HCK)?
A: 0%

Q: What about the percentage effect (TIE2(Y897S)) of the same compound?
A: -6%

Q: And the percentage effect (CKIT(D816H))?
A: -1%

Q: And the percentage effect (SRC(T341M))?
A: -18%

Q: What about the percentage effect (PRK2) of the same compound?
A: -11%

Q: What about the percentage effect (LCK) of the same compound?
A: 4%

Q: And the percentage effect (CK2ALPHA2)?
A: 13%

Q: And the percentage effect (CDK7/CYCLINH/MAT1)?
A: -4%

Q: What about the percentage effect (CK1(Y)) of the same compound?
A: 4%

Q: What about the percentage effect (cMET (Y1248D)) of the same compound?
A: 19%

Q: And the percentage effect (CKIT(V560G))?
A: -21%

Q: And the percentage effect (EGFR(L858R))?
A: -15%

Q: And the percentage effect (CHK2(R145W))?
A: -6%

Q: What about the percentage effect (SRC(1-530)) of the same compound?
A: -3%

Q: And the percentage effect (EGFR(L861Q))?
A: -9%

Q: And the percentage effect (PKCZETA)?
A: -13%

Q: For `COC1CN(C(=O)c2ccc3c(N)ncc(-c4ccc(-c5cnn(C)c5)cc4)c3n2)C1` [Compound 51], which Vd (in vivo [1]; iv, 0.2 mg/kg) is on record?
A: 2.13 L/kg

Q: What about the clearance (in vivo [1]; iv, 0.2 mg/kg) of the same compound?
A: 21.5 mL/min/kg

Q: What about the bioavailability (in vivo [1]; po, 0.5 mg/kg) of the same compound?
A: 57%

Q: What about the percentage effect (GRK5) of the same compound?
A: 6%

Q: What about the “Caco-2 ER” value (Caco-2) of the same compound?
A: 5.9

Q: What about the “Caco-2 PappA-B” value (Caco-2) of the same compound?
A: 28.6 × 10^–6 cm/s

Q: And the percentage effect (RSK3)?
A: 4%

Q: And the residence time [2]?
A: 31 ± 3 min

Q: What about the percentage effect (BMX) of the same compound?
A: -3%

Q: And the “% in feces (iv dosing)” value [3]?
A: 31%

Q: What about the percentage effect (P70S6K) of the same compound?
A: -25%

Q: What about the Vd (in vivo [4]; iv, 0.2 mg/kg) of the same compound?
A: 1.87 L/kg

Q: What about the clearance (in vivo [4]; iv, 0.2 mg/kg) of the same compound?
A: 32.3 mL/min/kg

Q: What about the bioavailability (in vivo [4]; po, 0.5 mg/kg) of the same compound?
A: 18%

Q: And the “% in feces (iv dosing)” value [5]?
A: 36%

Q: And the microsomal CLint at 1 µM (in vitro [6])?
A: 61 µL/min/mg

Q: And the percentage effect (DAPK2)?
A: 5%

Q: What about the residence time [7] of the same compound?
A: 15 ± 2 min

Q: And the percentage effect (PRK2)?
A: -3%

Q: And the microsomal CLint at 1 µM (in vitro [8])?
A: 26 µL/min/mg

Q: And the percentage effect (CK2ALPHA2)?
A: 0%

Q: What about the percentage effect (CDK7/CYCLINH/MAT1) of the same compound?
A: 20%

Q: And the percentage effect (CDK9/CYCLINT1)?
A: 8%

Q: What about the percentage effect (PKCZETA) of the same compound?
A: 4%
